Read-outs that look alike come from different tables or passages of the source.
Biological target: T1, Human Recombinant Matriptase 2 (Homo sapiens, UniProt Q8IU80)
T1 construct: purchased Enzo Life Sciences (an in-house preparation was also used) ALX-201-752-1
T1 sequence (Q8IU80 1-811): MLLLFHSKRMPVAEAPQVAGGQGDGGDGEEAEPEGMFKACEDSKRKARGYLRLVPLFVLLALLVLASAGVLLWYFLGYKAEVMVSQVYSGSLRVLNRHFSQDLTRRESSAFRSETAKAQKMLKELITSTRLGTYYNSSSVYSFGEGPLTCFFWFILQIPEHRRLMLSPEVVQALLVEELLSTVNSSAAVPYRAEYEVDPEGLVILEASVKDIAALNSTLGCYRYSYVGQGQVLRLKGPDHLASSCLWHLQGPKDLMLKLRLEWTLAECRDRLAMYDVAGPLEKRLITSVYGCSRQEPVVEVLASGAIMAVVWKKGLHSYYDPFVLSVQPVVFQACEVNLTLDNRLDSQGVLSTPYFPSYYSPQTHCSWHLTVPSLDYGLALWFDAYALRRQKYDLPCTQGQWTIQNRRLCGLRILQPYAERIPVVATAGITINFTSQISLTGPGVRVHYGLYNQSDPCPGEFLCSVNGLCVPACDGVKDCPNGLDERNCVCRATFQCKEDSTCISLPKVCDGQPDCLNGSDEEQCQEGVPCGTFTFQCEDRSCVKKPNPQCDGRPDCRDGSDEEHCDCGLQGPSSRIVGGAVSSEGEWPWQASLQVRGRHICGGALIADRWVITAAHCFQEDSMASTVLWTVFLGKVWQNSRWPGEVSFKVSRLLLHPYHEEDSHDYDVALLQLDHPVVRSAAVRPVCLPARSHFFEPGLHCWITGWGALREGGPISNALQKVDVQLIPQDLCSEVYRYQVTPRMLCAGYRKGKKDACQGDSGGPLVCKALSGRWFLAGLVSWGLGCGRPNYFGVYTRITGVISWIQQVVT
Assay: Matriptase 2 fluorescence based inhibition assay, Method A (100 mM TRIS pH 9, 1 mg/mL BSA)
Assay type: biochemical
Conditions: read-out: Mar-2 % inhibition at 1 uM
Outline: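 Enzyme (7 nM commercial or 15 nM in-house) preincubated 30 min with compound in 100 mM TRIS pH 9, 1 mg/mL BSA, 1% DMSO at 25° C. Boc-Gln-Ala-Arg-AMC substrate at 100 μM; fluorescence (Ex 360/Em 480 nm) read 60 min later. Screened at 1 and 10 μM; IC50 from variable-slope sigmoidal fit.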

SMILES	inhibition at 1 µM (1 uM, Assay Used A)	inhibition at 1 µM (at 1 uM, Assay Used = A)	also measured
N=C(N)c1ccc2cc(C(=O)NCC3CCCCC3)n(Cc3ccc(C(F)(F)F)cc3)c2c1 [Compound I-10]	25 to 50%	–	–
N=C(N)c1ccc2cc(C(=O)NC3CCC(F)(F)CC3)n(Cc3cccc(C(N)=O)c3)c2c1 [Compound I-230, 6-Carbamimidoyl-1-(3-carbamoylbenzyl)-N-(4-difluorocyclohexyl)-1H-indole-2-carboxamide]	–	0 to 25%	–
CC(C)c1ccc(Cn2c(C(=O)N3CCC(F)CC3)cc3ccc(C(=N)N)cc32)cc1 [Compound I-295]	–	0 to 25%	–
N=C(N)c1ccc2cc(C(=O)N3CCC(F)CC3)n(Cc3cccc(NC(=O)CCN)c3)c2c1 [Compound I-366]	–	0 to 25%	–
N=C(N)c1ccc2cc(C(=O)N[C@H]3CC[C@H](N)CC3)n(Cc3ccc(Oc4ccc(F)cc4)nc3)c2c1 [Compound I-246]	–	50 to 75%	–
N=C(N)c1ccc2cc(C(=O)Nc3cc(F)cc(N4CCCC4)c3)n(Cc3ccc(C(N)=O)cc3)c2c1 [Compound I-108]	0 to 25%	–	–
N=C(N)c1ccc2cc(C(=O)N3CCC(CCN)CC3)n(Cc3ccc(OC(F)(F)F)cc3)c2c1 [Compound I-288]	–	0 to 25%	–
C[C@H](NC(=O)c1cc2ccc(C(=N)N)cc2n1Cc1ccc(C(N)=O)cc1)c1ccccc1 [Compound I-72]	0 to 25%	–	–
Cc1ccnc(NC(=O)c2cc3ccc(C(=N)N)cc3n2Cc2ccc(C(N)=O)cc2)c1 [Compound I-176]	0 to 25%	–	–
N=C(N)c1ccc2cc(C(=O)N3CCC[C@H](CF)C3)n(Cc3ccc(C(N)=O)cc3)c2c1 [Compound I-332]	–	0 to 25%	–
N=C(N)c1ccc2cc(C(=O)Nc3cccc(N4CCCC4)n3)n(Cc3ccc(C(N)=O)cc3)c2c1 [Compound I-180]	25 to 50%	–	–
C[C@H]1CCCN1c1cccc(NC(=O)c2cc3ccc(C(=N)N)cc3n2Cc2ccc(C(N)=O)cc2)c1 [Compound I-124]	0 to 25%	–	–
N=C(N)c1ccc2cc(C(=O)NCC3CCCCC3)n(Cc3ccc(C(=O)NCCO)cc3)c2c1 [Compound I-222, 6-Carbamimidoyl-N-(cyclohexylmethyl)-1-(4-((2-hydroxyethyl)carbamoyl)benzyl)-1H-indole-2-carboxamide]	–	0 to 25%	–
N/C(=N\O)c1ccc2cc(C(=O)N[C@H]3CC[C@H](N)CC3)n(Cc3ccc4ccccc4c3)c2c1 [Compound I-399]	–	–	inhibition at 1 µM (1 uM compound, Assay Used = A): 0 to 25%
CCOC(=O)NC(=N)c1ccc2cc(C(=O)Nc3cccc(N4CCCC4)c3)n(Cc3ccc(C(N)=O)cc3)c2c1 [Compound I-120]	0 to 25%	–	–
N=C(N)c1ccc2cc(C(=O)N3CCCC(F)(F)C3)n(Cc3ccc(Oc4ccccc4)cc3)c2c1 [Compound I-315]	–	0 to 25%	–
N=C(N)c1ccc2cc(C(=O)NC3CCC(F)(F)CC3)n(CCS(=O)(=O)c3ccccc3)c2c1 [Compound I-48]	25 to 50%	–	–
N=C(N)c1ccc2cc(C(=O)N3CCC(F)(F)C3)n(Cc3ccc(-c4ccccc4)cc3)c2c1 [Compound I-310]	–	0 to 25%	–
N=C(N)c1ccc2cc(C(=O)Nc3cccc(-n4cccn4)n3)n(Cc3ccc(C(N)=O)cc3)c2c1 [Compound I-181]	0 to 25%	–	–
N=C(N)c1ccc2cc(C(=O)Nc3cccc(-c4ncc[nH]4)c3)n(Cc3ccc(C(N)=O)cc3)c2c1 [Compound I-137]	25 to 50%	–	–
N=C(N)c1ccc2c([N+](=O)[O-])c(C(=O)N[C@H]3CC[C@H](N)CC3)n(CCS(=O)(=O)c3ccccc3)c2c1 [Compound I-55, N-((1r,4r)-4-Aminocyclohexyl)-6-carbamimidoyl-3-nitro-1-(2-(phenylsulfonyl)ethyl)-1H-indole-2-carboxamide]	0 to 25%	–	–
N=C(N)c1ccc2cc(C(=O)N[C@H]3CC[C@H](N)CC3)n(Cc3ccc(NC(=O)CCN)cc3)c2c1 [Compound I-262, N-((1r,4r)-4-Aminocyclohexyl)-1-(4-(3-aminopropanamido)benzyl)-6-carbamimidoyl-1H-indole-2-carboxamide]	–	25 to 50%	–
N=C(N)c1ccc2cc(C(=O)Nc3cccc(N4CC[C@@H](F)C4)c3)n(Cc3ccc(C(N)=O)cc3)c2c1 [Compound I-140]	0 to 25%	–	–
N=C(N)c1ccc2cc(C(=O)Nc3cccc4c3CCC4)n(Cc3ccc(C(N)=O)cc3)c2c1 [Compound I-91]	0 to 25%	–	–

SMILES	inhibition at 1 µM (1 uM, Assay Used A)	inhibition at 1 µM (at 1 uM, Assay Used = A)	also measured
N=C(N)c1ccc2cc(C(=O)N3CCC(C(=O)NCCCN)CC3)n(Cc3ccc(C(F)(F)F)cc3)c2c1 [Compound I-356, N-(3-Aminopropyl)-1-(6-carbamimidoyl-1-(4-(trifluoromethyl)benzyl)-1H-indole-2-carbonyl)-piperidine-4-carboxamide]	–	0 to 25%	–
N=C(N)c1ccc2cc(C(=O)N[C@H]3CCc4ccccc43)n(Cc3ccc(C(N)=O)cc3)c2c1 [Compound I-202]	–	0 to 25%	–
N=C(N)c1ccc2cc(C(=O)Nc3ccc(Br)cc3F)n(Cc3ccc(C(N)=O)cc3)c2c1 [Compound I-145]	0 to 25%	–	–
N=C(N)c1ccc2cc(C(=O)N[C@H]3CCNC3)n(Cc3ccc(C(N)=O)cc3)c2c1 [Compound I-205]	–	25 to 50%	–
CC(C)(C)c1ccc(Cn2c(C(=O)N3CC[C@H](F)C3)cc3ccc(C(=N)N)cc32)cc1 [Compound I-298]	–	25 to 50%	–
N=C(N)c1ccc2cc(C(=O)Nc3ccc(F)c(N4CCCC4)c3)n(Cc3ccc(C(N)=O)cc3)c2c1 [Compound I-155]	0 to 25%	–	–
N=C(N)c1ccc2cc(C(=O)Nc3cccc(C(N)=O)c3)n(CCc3ccccc3)c2c1 [Compound I-26]	0 to 25%	–	–
N=C(N)c1ccc2cc(C(=O)NC3CCN(CCN)CC3)n(CCc3ccccc3)c2c1 [Compound I-28, N-(1-(2-Aminoethyl)piperidin-4-yl)-6-carbamimidoyl-1-phenethyl-1H-indole-2-carboxamide]	25 to 50%	–	–
N=C(N)c1ccc2cc(C(=O)NC34CC5CC(CC(C5)C3)C4)n(Cc3ccc(C(N)=O)cc3)c2c1 [Compound I-200]	–	0 to 25%	–
N=C(N)c1ccc2cc(C(=O)Nc3ccc(N4CCCC4)cc3)n(CCS(=O)(=O)c3ccccc3)c2c1 [Compound I-44]	0 to 25%	–	–
NCCC(=O)Nc1ccc(Cn2c(C(=O)N3CCC(CCN)CC3)cc3ccc(/C(N)=N/O)cc32)cc1 [Compound I-383]	–	0 to 25%	–
N=C(N)c1ccc2cc(C(=O)N3CCC(F)(F)CC3)n(Cc3ccc(OC(F)(F)F)cc3)c2c1 [Compound I-290]	–	0 to 25%	–
NC(=O)c1ccc2cc(C(=O)N3CCc4ccccc4C3)n(Cc3ccc(-c4ccccc4)cc3)c2c1 [Compound I-394, 1-([1,1′-Biphenyl]-4-ylmethyl)-2-(1,2,3,4-tetrahydroisoquinoline-2-carbonyl)-1H-indole-6-carboxamide]	–	0 to 25%	–
N=C(N)c1ccc2cc(C(=O)NCc3ccncc3)n(Cc3ccc(C(N)=O)cc3)c2c1 [Compound I-168]	25 to 50%	–	–
COc1cccc(NC(=O)c2cc3ccc(C(=N)N)cc3n2Cc2ccc(C(N)=O)cc2)c1 [Compound I-67]	0 to 25%	–	–
N=C(N)c1ccc2cc(C(=O)Nc3cc(N4CCCC4)ccn3)n(Cc3ccc(C(N)=O)cc3)c2c1 [Compound I-179]	0 to 25%	–	–
N=C(N)c1ccc2cc(C(=O)N[C@@H]3c4ccccc4C[C@H]3O)n(Cc3ccc(C(N)=O)cc3)c2c1 [Compound I-203]	–	0 to 25%	–
CO[C@H]1CCN(c2cccc(NC(=O)c3cc4ccc(C(=N)N)cc4n3Cc3ccc(C(N)=O)cc3)c2)C1 [Compound I-123]	0 to 25%	–	–
N=C(N)c1ccc2cc(C(=O)N3CCC(CF)CC3)n(Cc3ccc(-c4ccccc4)cc3)c2c1 [Compound I-308]	–	0 to 25%	–
N=C(N)c1ccc2cc(C(=O)N3CCCC4CCCCC43)n(CCS(=O)(=O)c3ccccc3)c2c1 (stereo not drawn) [Compound I-338]	–	0 to 25%	–
CC1CCC(NC(=O)c2cc3ccc(C(=N)N)cc3n2Cc2ccc(C(N)=O)cc2)CC1 (stereo not drawn) [Compound I-185]	0 to 25%	–	–
CC(C)(NC(=O)c1cc2ccc(C(=N)N)cc2n1Cc1ccc(C(N)=O)cc1)c1ccc(Cl)cc1 [Compound I-109]	0 to 25%	–	–
N=C(N)c1ccc2c(Cl)c(C(=O)NCC3CCCCC3)n(Cc3ccc(C(N)=O)cc3)c2c1 [Compound I-213, 6-Carbamimidoyl-1-(4-carbamoylbenzyl)-3-chloro-N-(cyclohexylmethyl)-1H-indole-2-carboxamide]	–	0 to 25%	–
C[C@@H](NC(=O)c1cc2ccc(C(=N)N)cc2n1Cc1ccc(C(N)=O)cc1)c1ccccc1 [Compound I-70]	0 to 25%	–	–

From patent US12428415B2, “Matriptase 2 inhibitors and uses thereof” (Disc Medicine, Inc., priority 2018, dated 2025)
